In brackets after ≈: the same amount, converted by molar mass. Like-named read-outs stand apart in the source and are kept apart here.
Tests used:
[1] = test system: U-937 human histocytic lymphoma; assay: In vitro anti-tumor IC50 (MTT), U-937; type: cell-based; settings: Table 4
Procedure: (§1) (1) Single cell suspension was seeded into 96-well plates (the cells was diluted in the PRMI-1640 minimum medium to 3×10^4 cells/ml, […] diluted cells/well). […] The experiments were performed in quadruplicate.
(§2) (2) The medium was removed. Solutions of the anti-tumor agents (50 compounds) were prepared in a freshly prepared medium at serial concentrations. […] of the solution was added into each well. Incubation was continued for 48 hours.
(§3) (3) 20 ug of 2 mg/ml MTT was added into each well, and incubated for 4 hours.
(§4) (4) The medium was removed from the well. The microplates were swiftly turned down to throw-off the medium. […] of DMSO was added into each well, and vortexed at room temperature for 10 minutes.
(§5) (5) OD value (λ=570 nm) was measured with an Enzyme-Linked Detector.
(§6) (6) The graph of cell vitality was plotted, and IC50 was calculated.

[2] = test system: U-937 human histocytic lymphoma; assay: In vitro inhibition rate to tumor cells (MTT), U-937; type: cell-based; settings: for inhibition rate, Results (%) U-937: 50 μg/ml; for inhibition at 50 µg/mL: Homo sapiens, U-937, 50 μg/ml, read-out: inhibition rate, Results (%) U-937
HepG2 cells = assay: Cell status of HepG2 cells treated with sample (HBV screening); type: cell-based; settings: 200 μg/ml, HepG2, four days after infection
Procedure: 1.5 Screening for the agents: The HepG2 cells were counted and 1.5×10^4 cells/well were seeded into a 96-well plate. After incubation overnight in an atmosphere of CO2 at 37° C., each of the experimental samples in a given concentration was added to the cells. After incubation at 37 °C for 24 hrs, the HepG2 treated with the samples were infected with vAcGFPHBVc of 100 MOI. A negative control and a positive control were also included. Four days after infection, the growth of the cells were observed, and the HBV e antigen in the supernatant was measured with the HBV e antigen diagnostic kit.

[3] = test system: HL-60 human promyelocytic leukemia; assay: In vitro inhibition rate to tumor cells (MTT), HL-60; type: cell-based; settings: for inhibition rate, Results (%) HL-60: 50 μg/ml; for inhibition at 50 µg/mL: Homo sapiens, HL-60, 50 μg/ml, read-out: inhibition rate, Results (%) HL-60
[4] = test system: LLC mouse Lewis lung carcinoma; assay: In vitro inhibition rate to tumor cells (MTT), LLC; type: cell-based; settings: 50 μg/ml; for inhibition at 50 µg/mL: Mus musculus, Lewis lung carcinoma
[5] = test system: Hela human cervical carcinoma; assay: In vitro inhibition rate to tumor cells (MTT), Hela; type: cell-based; settings: 50 μg/ml; for inhibition at 50 µg/mL: Homo sapiens, HeLa, read-out: inhibition rate, Results (%) Hela
[6] = test system: A-549 human lung adenocarcinoma; assay: In vitro inhibition rate to tumor cells (MTT), A-549; type: cell-based; settings: for inhibition rate, Results (%) A-549: 50 μg/ml; for inhibition at 50 µg/mL: Homo sapiens, A549, 50 μg/ml, read-out: inhibition rate, Results (%) A-549
[7] = test system: SMMC-7721 human hepatic carcinoma; assay: In vitro inhibition rate to tumor cells (MTT), SMMC-7721; type: cell-based; settings: for inhibition rate, Results (%) SMMC-7721: 50 μg/ml; for inhibition at 50 µg/mL: Homo sapiens, SMMC-7721, 50 μg/ml, read-out: inhibition rate, Results (%) SMMC-7721
[8] = type: cell-based, VSV; settings: 200 μg/ml, 24 hrs after infection
293 cells = assay: Cell status of 293 cells treated with sample alone (herpes virus screening)
[9] = test system: Bel-7402 human hepatic carcinoma; assay: In vitro inhibition rate to tumor cells (MTT), Bel-7402; type: cell-based; settings: for inhibition rate, Results (%) Bel-7402: 50 μg/ml; for inhibition at 50 µg/mL: Homo sapiens, Bel-7402, 50 μg/ml, read-out: inhibition rate, Results (%) Bel-7402
MDCK (dog kidney) cells = assay: Toxicity TC50 of the samples in MDCK cells (influenza screening); settings: concentration of 50% toxicity
[10] = test system: MCF-7 human mammary adenocarcinoma; assay: In vitro inhibition rate to tumor cells (MTT), MCF-7; type: cell-based; settings: for inhibition rate, Results (%) MCF-7: 50 μg/ml; for inhibition at 50 µg/mL: Homo sapiens, MCF7, 50 μg/ml, read-out: inhibition rate, Results (%) MCF-7
Hepatitis B virus (HBV) = type: cell-based; settings: 200 μg/ml; for (Value of the positive control - Measured Value) Value of the positive control × 100%: decrease of HBeAg relative to positive control; for OD450 of HBeAg: supernatant four days after infection, positive control 1.917, negative 0.057
[11] = test system: Hela human cervical carcinoma; assay: In vitro anti-tumor IC50 (MTT), Hela; type: cell-based; settings: Table 4
Procedure: as §1, §2, §3, §4, §5, §6

uterine cervix cancer = settings: 75 mg/Kg, subcutaneous injection; cited from earlier work
[12] = background statement; cited from earlier work
mouse sarcoma 37 = settings: 75 mg/Kg, subcutaneous injection; cited from earlier work
[13] = test system: Ehrlich's ascites carcinoma (EAC); settings: 75 mg/Kg, subcutaneous injection; cited from earlier work
[14] = 50 μg/ml, 293 cells without virus, 12 hrs

In the case of `CCCCNC=C1CC2(O)OC3(CC2C(C)C)C(C)CCC13.Cl` (centres unmarked) [Compound 14, Curcumol n-butyl amine hydrochloride], the “IC50 (ug/ml) against tumor cell lines, U-937” value [1] is reported as 0.58 µg/mL, the “inhibition rate, Results (%) U-937” value ([2]; Table 1) is reported as 82.88% and the “inhibition rate, Results (%) U-937” value ([2]; Table 2 (repeated screening)) is reported as 81.23%. For the same molecule, the Cell status (HepG2 cells) was “Poor”, the “inhibition rate, Results (%) HL-60” value ([3]; Table 1) was 2.45% and the “inhibition rate, Results (%) HL-60” value ([3]; Table 2 (repeated screening)) was 4.35%. The “inhibition rate, Results (%) LLC” value ([4]; Table 1) was −10.57%, the “inhibition rate, Results (%) LLC” value ([4]; Table 2 (repeated screening)) was −14.29% and the “inhibition rate, Results (%) Hela” value ([5]; Table 1) was 75.46%. The “inhibition rate, Results (%) Hela” value ([5]; Table 2 (repeated screening)) was 76.32%, the “inhibition rate, Results (%) A-549” value ([6]; Table 1) was 8.09% and the “inhibition rate, Results (%) A-549” value ([6]; Table 2 (repeated screening)) was 9.23%. For the same molecule, the “inhibition rate, Results (%) SMMC-7721” value ([7]; Table 1) was 6.14%, the “inhibition rate, Results (%) SMMC-7721” value ([7]; Table 2 (repeated screening)) was 3.21% and the “Cytopathy and cell status, Sample + VSV” value [8] was “Cytopathy, poor”. For the same molecule, the “Cytopathy and cell status, Sample” value (293 cells; [14]) was “Good”, the “Cytopathy and cell status, Sample” value (293 cells; 200 μg/ml, 24 hrs) was “Poor” and the “inhibition rate, Results (%) Bel-7402” value ([9]; Table 1) was 32.00%. For the same molecule, the “inhibition rate, Results (%) Bel-7402” value ([9]; Table 2 (repeated screening)) was 23.56%, the TC50 (MDCK (dog kidney) cells) was 143.17 µg/mL and the “inhibition rate, Results (%) MCF-7” value ([10]; Table 1) was 56.30%. For the same molecule, the “inhibition rate, Results (%) MCF-7” value ([10]; Table 2 (repeated screening)) was 54.23%, the “(Value of the positive control - Measured Value) Value of the positive control × 100%” value (Hepatitis B virus (HBV)) was 97.24% and the “OD450 of HBeAg” value (Hepatitis B virus (HBV)) was 0.053. The “IC50 (ug/ml) against tumor cell lines, Hela” value [11] was 1.5 µg/mL.

`C=C1CC2(O)OC3(CC2C(C)C)C(C)CCC13` (centres unmarked) [Curcumol E, Curcumol, reference compound] showed an inhibition at 50 µg/mL ([2]; Table 1) of 28%, an inhibition at 50 µg/mL ([2]; Table 2 (repeated screening)) of 14.3% and an inhibition at 50 µg/mL ([2]; Table 3 (repeated screening)) of 19.8%. For the same molecule, the Cell status (HepG2 cells) was “Normal”, the inhibition at 50 µg/mL ([3]; Table 1) was 1.32% and the inhibition at 50 µg/mL ([3]; Table 2 (repeated screening)) was 1.23%. The inhibition at 50 µg/mL ([3]; Table 3 (repeated screening)) was 1.79%, the inhibition at 50 µg/mL ([4]; Table 1) was -3.04% and the inhibition at 50 µg/mL ([4]; Table 2 (repeated screening)) was -8.9%. It also gave an inhibition at 50 µg/mL ([4]; Table 3 (repeated screening)) of -14.4%, an inhibition at 50 µg/mL ([5]; Table 1) of 86.8% and an inhibition at 50 µg/mL ([5]; Table 2 (repeated screening)) of 70.1%. It also gave an inhibition at 50 µg/mL ([5]; Table 3 (repeated screening)) of 78.6%, an inhibition at 50 µg/mL ([6]; Table 1) of -0.57% and an inhibition at 50 µg/mL ([6]; Table 2 (repeated screening)) of -11.3%. For the same molecule, the inhibition at 50 µg/mL ([6]; Table 3 (repeated screening)) was -16.6%, the inhibition at 50 µg/mL ([7]; Table 1) was -11.5% and the inhibition at 50 µg/mL ([7]; Table 2 (repeated screening)) was -12.3%. For the same molecule, the inhibition at 50 µg/mL ([7]; Table 3 (repeated screening)) was -0.23%, the “Cytopathy and cell status, Sample” value (293 cells; [14]) was “Good” and the “inhibition rate against uterine cervix cancer (in words)” value (uterine cervix cancer) was “high inhibition rate”. For the same molecule, the inhibition at 50 µg/mL ([9]; Table 1) was 4.79%, the inhibition at 50 µg/mL ([9]; Table 2 (repeated screening)) was 9.87% and the inhibition at 50 µg/mL ([9]; Table 3 (repeated screening)) was 9.78%. For the same molecule, the TC50 (MDCK (dog kidney) cells) was >1000 µg/mL, the “water solubility (in words)” value [12] was “Poor water solubility” and the inhibition at 50 µg/mL ([10]; Table 1) was 55.6%. The inhibition at 50 µg/mL ([10]; Table 2 (repeated screening)) was 50.2%, the inhibition at 50 µg/mL ([10]; Table 3 (repeated screening)) was 51.2% and the “inhibition rate against mouse sarcoma 37 (in words)” value (mouse sarcoma 37) was “high inhibition rate”. The “(Value of the positive control - Measured Value) Value of the positive control × 100%” value (Hepatitis B virus (HBV)) was −38.4455%, the “OD450 of HBeAg” value (Hepatitis B virus (HBV)) was 2.654 and the IC50 ([11]; Homo sapiens, HeLa, read-out: IC50 (ug/ml) against tumor cell lines, Hela) was 3.23 µg/mL (≈ 13.7 µM). For the same molecule, the “inhibition rate against Ehrlich's ascites carcinoma (in words)” value [13] was “high inhibition rate”.
